Measured values: US20160089321A1, “ANTIPERSPIRANT COMPOSITIONS” (Johnson & Johnson Consumer Inc., priority 2014, published 2016)
Blank lines part the entries; values can stand above or below the compound they belong to.

Tests used:
[1] = Turbidity measurement caused by gel polymerization in alkaline pH (turbidimeter); type: physicochemical; conditions: for Potential to gel polymerize in an alkaline environment: summary of Table 1
Procedure: In this test, a Hach model 2100 lab turbidimeter was used. One solution containing sodium hydroxide at pH 8.5 was prepared and each compound was tested at 10% concentration after mixing. […] The insoluble gel formed should act as an obstruction at the orifice of the sweat gland, reducing the flow of axillary perspiration.

[2] = molecular target: T1, Bovine serum albumin (BSA) (Bos taurus, UniProt P02769); assay: In vitro active-protein interaction: BSA precipitation by the Bradford method; type: biochemical; conditions: for Precipitation (BSA): screening test, 10% active solution; for Precipitation (BSA) / % BSA Precipitation: buffer pH 4.9; for % BSA Precipitation: dose-response assay
T1 construct: add 4 g of albumin (available from Sigma-Aldrich) from bovine serum (BSA) to 2000 mL of buffer solution; purchased Sigma-Aldrich A7906; host or cells: bovine serum (natural source)
T1 sequence (P02769 25-607): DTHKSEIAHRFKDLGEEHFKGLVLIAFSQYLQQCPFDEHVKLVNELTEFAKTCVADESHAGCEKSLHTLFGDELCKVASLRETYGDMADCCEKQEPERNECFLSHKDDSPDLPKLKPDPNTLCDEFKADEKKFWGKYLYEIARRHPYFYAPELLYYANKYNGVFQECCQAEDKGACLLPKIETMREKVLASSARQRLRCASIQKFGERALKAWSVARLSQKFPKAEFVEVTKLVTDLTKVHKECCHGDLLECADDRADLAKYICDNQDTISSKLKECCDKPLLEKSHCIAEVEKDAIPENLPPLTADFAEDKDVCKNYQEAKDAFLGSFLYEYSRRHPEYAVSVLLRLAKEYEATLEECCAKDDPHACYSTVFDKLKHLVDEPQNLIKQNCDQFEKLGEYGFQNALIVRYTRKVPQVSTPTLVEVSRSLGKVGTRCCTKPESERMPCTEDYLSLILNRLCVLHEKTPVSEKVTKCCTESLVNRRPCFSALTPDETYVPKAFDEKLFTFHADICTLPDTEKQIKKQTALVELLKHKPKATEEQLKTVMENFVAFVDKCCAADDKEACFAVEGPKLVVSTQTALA
Procedure: Method 2: In Vitro Study to Evaluate Active-Protein Interaction
Bovine serum albumin (BSA) was used as the reference protein to generate the calibration curve. […] The BSA granular, the BSA solution standard and Bradford reagent were all obtained from Sigma-Aldrich (Catalog Number: A7906, PO834, B6916). The buffer solution was made by adding 875 mL of 0.1 Molar sodium hydroxide (SpecSol) to 125 mL 0.1 Molar potassium dihydrogen phosphate (Merck) and its pH was adjusted to BSA isoelectric point (pH 4.9).
1. Prepare buffer by adding 875 mL of 0.1 Molar sodium hydroxide to 125 mL of 0.1 Molar potassium dihydrogen phosphate, adjusted to pH 4.9. This is the buffer solution used to make the active sample solution, the dose-response curve and the protein solution.
2. To prepare an active sample solution for initial screening, add 5 g of the active material to 50 mL of the buffer solution.
3. To prepare the protein solution, add 4 g of albumin (available from Sigma-Aldrich) from bovine serum (BSA) to 2000 mL of buffer solution.
4. To prepare the reaction solution, add 10 mL of the sample solution (step 2) to 50 mL of the protein solution.
5. To prepare the analytical solution, after filtration through a 0.45 μm membrane, 0.01 mL of reaction solution (step 4) to 3 mL of the Bradford reagent. Measure and record the absorbance at 595 nm. Determine the protein concentration by comparison to the standard curve.

[3] = compound at 10% in sodium hydroxide solution pH 8.5
[4] = mean turbidity, compound at 10% in sodium hydroxide solution pH 8.5

Compound: CC(O)C(=O)O.N (stereo not shown) [Ammonium lactate]
- Physical Observation [1, 3]: Liquid
- Turbidity pH 8.5 [1, 4]: 1.2 NTU

Compound: N.N.O=S(=O)(O)O [Ammonium sulfate]
- Physical Observation [1, 3]: Liquid
- Turbidity pH 8.5 [1, 4]: 1.1 NTU

Compound: CC(=O)[O-].CC(=O)[O-].[Ca+2] [Calcium acetate]
- Physical Observation ([1]; pH 8.5): Liquid
- Turbidity pH 8.5 ([1]; pH 8.5): 20.0 NTU
- Precipitation (BSA) [2]: 5%

Compound: O.O.O.O.O.O.O.O=S(=O)([O-])[O-].[Mg+2] [Magnesium sulfate 7•H2O]
- Physical Observation [1, 3]: Liquid
- Turbidity pH 8.5 [1, 4]: 1.5 NTU
- Precipitation (BSA) [2]: 12%

Compound: CC(O)C(=O)[O-].CC(O)C(=O)[O-].[Ca+2] (stereo not shown) [Calcium lactate]
- Physical Observation [1, 3]: Liquid
- Turbidity pH 8.5 [1, 4]: 0.9 NTU

Compound: CC(O)C(=O)[O-].CC(O)C(=O)[O-].[Zn+2] (stereo not shown) [Zinc Lactate (food), zinc lactate]
- Physical Observation [1, 3]: Gel Polymerization
- Turbidity pH 8.5 [1, 4]: 525.5 NTU
- Potential to gel polymerize in an alkaline environment [1]: high potential to gel polymerize

- % BSA Precipitation ([2]; 1% solution): 5%
- % BSA Precipitation ([2]; 5% solution): −1%
- % BSA Precipitation ([2]; 10% solution): 21%
- % BSA Precipitation ([2]; 15% solution): 31%
- Precipitation (BSA) [2]: 18%
Compound: O=S(=O)([O-])c1ccc(O)cc1.O=S(=O)([O-])c1ccc(O)cc1.[Zn+2] [Zinc Phenolsulfonate, zinc phenolsulfonate]
- Physical Observation [1, 3]: Liquid
- Turbidity pH 8.5 [1, 4]: 1.8 NTU
- Potential to be clogging agents (protein precipitation) ([2]; summary of Tables 2 and 3): demonstrated potential to be clogging agents

Compound: O.O.O.O.O.O=S(=O)([O-])[O-].[Mg+2] [Magnesium sulfate 5•H2O]
- Physical Observation [1, 3]: Liquid
- Turbidity pH 8.5 [1, 4]: 1.5 NTU
- Precipitation (BSA) [2]: 10%

Compound: CC(O)C(=O)[O-].[Na+] (stereo not shown) [Sodium lactate]
- Physical Observation [1, 3]: Liquid
- Turbidity pH 8.5 [1, 4]: 0.5 NTU

Compound: O=S(=O)([O-])[O-].[Mg+2] [Magnesium sulfate Andros]
- Physical Observation [1, 3]: Liquid
- Turbidity pH 8.5 [1, 4]: 0.5 NTU
- Precipitation (BSA) [2]: 8%

- Precipitation (BSA) [2]: 100%
Compound: aluminum sesquichlorohydrate [Aluminium Sesquichlorohydrate, reference compound]
- Physical Observation [1, 3]: Gel Polymerization
- Turbidity pH 8.5 [1, 4]: 593.0 NTU

Compound: CC(O)C(=O)[O-].CC(O)C(=O)[O-].[Zn+2] (stereo not shown) [Zinc Lactate (pharma), zinc lactate]
- Physical Observation [1, 3]: Gel Polymerization
- Turbidity pH 8.5 [1, 4]: 538.0 NTU
- Potential to gel polymerize in an alkaline environment [1]: high potential to gel polymerize

Compound: O=S(=O)([O-])[O-].[Na+].[Na+] [Sodium sulfate]
- Physical Observation ([1]; pH 8.5): Liquid
- Turbidity pH 8.5 ([1]; pH 8.5): 1.8 NTU

Compound: O.O=S(=O)([O-])[O-].[Mg+2] [Magnesium sulfate 1•H2O]
- Physical Observation [1, 3]: Liquid
- Turbidity pH 8.5 [1, 4]: 0.9 NTU
- Precipitation (BSA) [2]: 11%

Compound: CC(=O)[O-].[Na+] [Sodium acetate]
- Physical Observation ([1]; pH 8.5): Liquid
- Turbidity pH 8.5 ([1]; pH 8.5): 0.9 NTU
- Precipitation (BSA) [2]: 5%

Compound: [Mg+2].[O-][Cl+2]([O-])[O-].[O-][Cl+2]([O-])[O-] [Magnesium chlorate]
- Physical Observation [1, 3]: Liquid
- Turbidity pH 8.5 [1, 4]: 0.4 NTU
- Precipitation (BSA) [2]: 4%

- % BSA Precipitation ([2]; 1% solution): 24%
- % BSA Precipitation ([2]; 5% solution): 56%
- % BSA Precipitation ([2]; 10% solution): 79%
- % BSA Precipitation ([2]; 15% solution): 95%
Compound: Aluminum chlorohydrate [reference compound]
